# Target: T1, TRPML1 (Homo sapiens, UniProt Q9GZU1)
# T1 construct: expressed in transfected cells; host or cells: HEK T-REx cells stably expressing GCaMP6f and TRPML1
# Assay: Cellular TRPML1 assay (FLIPR, GCaMP6f calcium read-out)
# Type: cell-based
# Conditions: HEKT-REx/GCaMP6f/TRPML1 cells, FLIPR TETRA, kinetic response over 300 seconds; read-out: TRPML1 FLIPR pEC50 (converted)
# Outline: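 HEK T-REx cells stably expressing TRPML1 and GCaMP6f, seeded 24 h before in Optimem + 0.5% FBS. After ~10 min pre-incubation at room temperature, compounds in Ca2+-free Tyrode's buffer were injected on FLIPR Tetra (final DMSO 0.5%). Calcium fluorescence kinetics followed for 300 s.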
# T1 sequence (Q9GZU1 whole entry): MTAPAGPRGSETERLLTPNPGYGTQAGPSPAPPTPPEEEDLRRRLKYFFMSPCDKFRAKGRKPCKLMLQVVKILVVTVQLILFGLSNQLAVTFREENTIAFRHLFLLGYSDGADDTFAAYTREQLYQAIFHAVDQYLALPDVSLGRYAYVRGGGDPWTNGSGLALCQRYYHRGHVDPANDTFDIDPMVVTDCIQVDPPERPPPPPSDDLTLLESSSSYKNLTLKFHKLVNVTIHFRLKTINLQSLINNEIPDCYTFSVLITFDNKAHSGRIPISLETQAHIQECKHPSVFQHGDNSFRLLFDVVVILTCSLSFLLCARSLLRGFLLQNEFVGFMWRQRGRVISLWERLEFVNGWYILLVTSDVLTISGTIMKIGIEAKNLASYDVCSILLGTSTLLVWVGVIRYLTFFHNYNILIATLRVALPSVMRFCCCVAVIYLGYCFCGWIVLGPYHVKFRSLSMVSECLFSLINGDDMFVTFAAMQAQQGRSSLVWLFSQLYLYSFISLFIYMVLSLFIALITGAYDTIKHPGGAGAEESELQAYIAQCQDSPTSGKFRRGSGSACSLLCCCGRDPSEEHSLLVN
row,EC50,Compound
1,0.01 to 1 µM,"CCc1oc(N2CC(CC)(CO)C2)nc1C(=O)Nc1cc(F)c(O[C@@H]2C[C@@H]3C[C@@H]3C2)c(Cl)c1 [Example 220, N-(4-(cis-bicyclo[3.1.0]hexan-3-yloxy)-3-chloro-5-fluorophenyl)-5-ethyl-2-(3-ethyl-3-(hydroxymethyl)azetidin-1-yl)oxazole-4-carboxamide]"
2,1 to 10 µM,"CC1(C)CN(c2nc(C(=O)Nc3cc(F)c(O[C@@H]4C[C@@H]5C[C@@H]5C4)c(F)c3)c(CC(F)(F)F)o2)CCO1 [Example 184, N-(4-(cis-bicyclo[3.1.0]hexan-3-yloxy)-3,5-difluorophenyl)-2-(2,2-dimethylmorpholino)-5-(2,2,2-trifluoroethyl)oxazole-4-carboxamide]"
3,10 to 100 µM,"Cc1oc(N2CCCC2CO)nc1C(=O)Nc1ccc(N2CCCCC2)c(F)c1 (stereo not shown) [Example 93, N-(3-fluoro-4-(piperidin-1-yl)phenyl)-2-(2-(hydroxymethyl)pyrrolidin-1-yl)-5-methyloxazole-4-carboxamide]"
4,1 to 10 µM,"O=C(Nc1cc(F)c(OC2CC3C[C@@H]3C2)c(F)c1)c1nc(N2CC3CC2CO3)oc1CC(F)(F)F (stereo partly drawn) [Example 182, 2-(2-oxa-5-azabicyclo[2.2.1]heptan-5-yl)-N-(4-(cis-bicyclo[3.1.0]hexan-3-yloxy)-3,5-difluorophenyl)-5-(2,2,2-trifluoroethyl)oxazole-4-carboxamide]"
5,0.01 to 1 µM,"CCc1oc(N2CC(CC)(OC)C2)nc1C(=O)Nc1ccc(O[C@@H]2C[C@@H]3C[C@@H]3C2)c(F)c1 [Example 246, N-(4-(cis-bicyclo[3.1.0]hexan-3-yloxy)-3-fluorophenyl)-5-ethyl-2-(3-ethyl-3-methoxyazetidin-1-yl)oxazole-4-carboxamide]"
6,10 to 100 µM,"O=C(Nc1ccc(N2CCCCC2)c(F)c1)c1nc(N2CCC3(CC2)CS(=O)(=O)C3)oc1CC(F)(F)F [Example 25, 2-(2,2-dioxo-2-thia-7-azaspiro[3.5]nonan-7-yl)-N-[3-fluoro-4-(piperidin-1-yl)phenyl]-5-(2,2,2-trifluoroethyl) oxazole-4-carboxamide]"
7,0.01 to 1 µM,"O=C(Nc1cc(F)c(OC2CC3C[C@@H]3C2)c(F)c1)c1nc(N2CC3CC2C3)oc1CC(F)(F)F (stereo partly drawn) [Example 175, 2-(2-azabicyclo[2.1.1]hexan-2-yl)-N-(4-(cis-bicyclo[3.1.0]hexan-3-yloxy)-3,5-difluorophenyl)-5-(2,2,2-trifluoroethyl)oxazole-4-carboxamide]"
8,1 to 10 µM,"CCC1(CC)CN(c2nc(C(=O)Nc3cc(F)c(O[C@@H]4C[C@@H]5C[C@@H]5C4)c(F)c3)c(CN3CCC3)o2)C1 [Example 300, 5-(azetidin-1-ylmethyl)-N-(4-(cis-bicyclo[3.1.0]hexan-3-yloxy)-3,5-difluorophenyl)-2-(3,3-diethylazetidin-1-yl)oxazole-4-carboxamide]"
9,0.01 to 1 µM,"CCc1oc(N2CCCCCC2)nc1C(=O)Nc1cc(F)c(O[C@@H]2C[C@@H]3C[C@@H]3C2)c(F)c1 [Example 242, 2-(azepan-1-yl)-N-(4-(cis-bicyclo[3.1.0]hexan-3-yloxy)-3,5-difluorophenyl)-5-ethyloxazole-4-carboxamide]"
10,1 to 10 µM,"O=C(Nc1cc(F)c(N2CCC3OCCC32)c(F)c1)c1nc(N2CCCC2)oc1CC(F)(F)F (stereo not shown) [Example 198, N-(3,5-difluoro-4-(hexahydro-4H-furo[3,2-b]pyrrol-4-yl)phenyl)-2-(pyrrolidin-1-yl)-5-(2,2,2-trifluoroethyl)oxazole-4-carboxamide]"
11,1 to 10 µM,"O=C(Nc1ccc(OCC2CCCC2(F)F)c(F)c1)c1nc(N2CCCC2)oc1CC(F)(F)F (stereo not shown) [Example 53, N-{4-[(2,2-difluorocyclopentyl)methoxy]-3-fluorophenyl}-2-(pyrrolidin-1-yl)-5-(2,2,2-trifluoroethyl)oxazole-4-carboxamide]"
12,1 to 10 µM,"CCC1(OC)CN(c2nc(C(=O)Nc3cc(O)c(O[C@@H]4C[C@@H]5C[C@@H]5C4)c(F)c3)c(CC(F)(F)F)o2)C1 [Example 268, N-(4-(cis-bicyclo[3.1.0]hexan-3-yloxy)-3-fluoro-5-hydroxyphenyl)-2-(3-ethyl-3-methoxyazetidin-1-yl)-5-(2,2,2-trifluoroethyl)oxazole-4-carboxamide]"
13,0.01 to 1 µM,"CC1(C)CN(c2nc(C(=O)Nc3cc(F)c(OC4CC5C[C@H]5C4)c(F)c3)c(CC(F)(F)F)o2)C1 (stereo partly drawn) [Example 37, N-(4-{cis-bicyclo[3.1.0]hexan-3-yloxy}-3,5-difluorophenyl)-2-(3,3-dimethylazetidin-1-yl)-5-(2,2,2-trifluoroethyl)oxazole-4-carboxamide]"
14,1 to 10 µM,"Cc1oc(N2CC3(C2)CC(F)(F)C3)nc1C(=O)Nc1ccc(N2CCCCC2)c(F)c1 [Example 89, 2-(6,6-difluoro-2-azaspiro[3.3]heptan-2-yl)-N-(3-fluoro-4-(piperidin-1-yl)phenyl)-5-methyloxazole-4-carboxamide]"
15,10 to 100 µM,"CC1CN(c2nc(C(=O)Nc3cc(F)c(OC4CC5C[C@H]5C4)c(F)c3)c(CC(F)(F)F)o2)CC(C)O1 (stereo partly drawn) [Example 176, N-(4-(cis-bicyclo[3.1.0]hexan-3-yloxy)-3,5-difluorophenyl)-2-(2,6-dimethylmorpholino)-5-(2,2,2-trifluoroethyl)oxazole-4-carboxamide]"
16,1 to 10 µM,"O=C(Nc1ccc(OC2CCCC2(F)F)c(F)c1)c1nc(N2CC3CCOC3C2)oc1CC(F)(F)F (stereo not shown) [Example 12, N-(4-((2,2-difluorocyclopentyl)oxy)-3-fluorophenyl)-2-(hexahydro-5H-furo[2,3-c]pyrrol-5-yl)-5-(2,2,2-trifluoroethyl)oxazole-4-carboxamide]"
17,0.01 to 1 µM,"CCC1(CC)CN(c2nc(C(=O)Nc3ccc(N4CCC5CC5C4)c(F)c3)c(CC(F)(F)F)o2)C1 (stereo not shown) [Example 212, N-(4-(3-azabicyclo[4.1.0]heptan-3-yl)-3-fluorophenyl)-2-(3,3-diethylazetidin-1-yl)-5-(2,2,2-trifluoroethyl)oxazole-4-carboxamide]"
18,1 to 10 µM,"CCc1oc(N2CC(C)(OC)C2)nc1C(=O)Nc1cc(O)c(OC2CC3C[C@@H]3C2)c(Cl)c1 (stereo partly drawn) [Example 271, N-(4-(cis-bicyclo[3.1.0]hexan-3-yloxy)-3-chloro-5-hydroxyphenyl)-5-ethyl-2-(3-methoxy-3-methylazetidin-1-yl)oxazole-4-carboxamide]"
19,0.01 to 1 µM,"O=C(Nc1ccc(OC2CCCC2(F)F)c(F)c1)c1nc(N2CC(C(F)(F)F)C2)oc1CC(F)(F)F (stereo not shown) [Example 18, N-(4-((2,2-difluorocyclopentyl)oxy)-3-fluorophenyl)-5-(2,2,2-trifluoroethyl)-2-(3-(trifluoromethyl)azetidin-1-yl)oxazole-4-carboxamide]"
20,0.01 to 1 µM,"CCC1(OC)CN(c2nc(C(=O)Nc3cc(F)c(OC4C[C@@H]5CC[C@H]4C5)c(F)c3)c(CC(F)(F)F)o2)C1 (stereo partly drawn) [Example 151, N-(4-(((1S,4R)-bicyclo[2.2.1]heptan-2-yl)oxy)-3,5-difluorophenyl)-2-(3-ethyl-3-methoxyazetidin-1-yl)-5-(2,2,2-trifluoroethyl)oxazole-4-carboxamide]"
21,10 to 100 µM,"Cc1cc(NC(=O)c2nc(N3CCCC3)oc2CC(F)(F)F)cc(F)c1N(C)C1CC2CC(C2)C1 (stereo not shown) [Example 217, N-(4-(bicyclo[3.1.1]heptan-3-yl(methyl)amino)-3-fluoro-5-methylphenyl)-2-(pyrrolidin-1-yl)-5-(2,2,2-trifluoroethyl)oxazole-4-carboxamide]"
22,0.01 to 1 µM,"O=C(Nc1cc(F)c(O[C@@H]2C[C@@H]3C[C@@H]3C2)c(F)c1)c1nc(N2CC3(CCOCC3)C2)oc1CC(F)(F)F [Example 188, N-(4-(cis-bicyclo[3.1.0]hexan-3-yloxy)-3,5-difluorophenyl)-2-(7-oxa-2-azaspiro[3.5]nonan-2-yl)-5-(2,2,2-trifluoroethyl)oxazole-4-carboxamide]"
23,1 to 10 µM,"CCc1oc(N2CC(CC)(OC)C2)nc1C(=O)Nc1cc(F)c(OC2CCOC2)c(F)c1 (stereo not shown) [Example 234, N-(3,5-difluoro-4-((tetrahydrofuran-3-yl)oxy)phenyl)-5-ethyl-2-(3-ethyl-3-methoxyazetidin-1-yl)oxazole-4-carboxamide]"
24,0.01 to 1 µM,"COCC1(COC)CN(c2nc(C(=O)Nc3cc(F)c(O[C@@H]4C[C@@H]5C[C@@H]5C4)c(F)c3)c(CC(F)(F)F)o2)C1 [Example 168, N-(4-(cis-bicyclo[3.1.0]hexan-3-yloxy)-3,5-difluorophenyl)-2-(3,3-bis(methoxymethyl)azetidin-1-yl)-5-(2,2,2-trifluoroethyl)oxazole-4-carboxamide]"
25,1 to 10 µM,"O=C(Nc1ccc(OCC(F)(F)F)c(F)c1)c1nc(N2CCCC2)oc1CC(F)(F)F [Example 42, N-(3-fluoro-4-(2,2,2-trifluoroethoxy)phenyl)-2-(pyrrolidin-1-yl)-5-(2,2,2-trifluoroethyl)oxazole-4-carboxamide]"
26,0.01 to 1 µM,"O=C(Nc1cc(F)c(OC2CCC3(CC3)C2)c(F)c1)c1nc(N2CCCC2)oc1CC(F)(F)F (stereo not shown) [Example 138, N-(3,5-difluoro-4-(spiro[2.4]heptan-5-yloxy)phenyl)-2-(pyrrolidin-1-yl)-5-(2,2,2-trifluoroethyl)oxazole-4-carboxamide]"
27,1 to 10 µM,"CCC1(CC)CN(c2nc(C(=O)Nc3cc(F)c(O[C@@H]4C[C@@H]5C[C@@H]5C4)c(F)c3)c(CN(C)C)o2)C1 [Example 301, N-(4-(cis-bicyclo[3.1.0]hexan-3-yloxy)-3,5-difluorophenyl)-2-(3,3-diethylazetidin-1-yl)-5-((dimethylamino)methyl)oxazole-4-carboxamide]"

row,Compound,EC50
1,"O=C(Nc1cc(F)c(N2C3CCCC2CC3)c(F)c1)c1nc(N2CCCOCC2)oc1CC(F)(F)F [Example 199, N-(4-(8-azabicyclo[3.2.1]octan-8-yl)-3,5-difluorophenyl)-2-(1,4-oxazepan-4-yl)-5-(2,2,2-trifluoroethyl)oxazole-4-carboxamide]",1 to 10 µM

# Source: US12098145B2 (Libra Therapeutics, Inc., priority 2022, dated 2024)
